Experiments:
Jarid1B = biological target: T1, Jarid1B (Homo sapiens, UniProt Q9UGL1); experiment: Jarid1B in vitro enzyme inhibition assay (TR-FRET); format: biochemical
T1 construct: purchased BPS Bioscience or custom made by MolecularThroughput 50121
T1 sequence (Q9UGL1 2-751): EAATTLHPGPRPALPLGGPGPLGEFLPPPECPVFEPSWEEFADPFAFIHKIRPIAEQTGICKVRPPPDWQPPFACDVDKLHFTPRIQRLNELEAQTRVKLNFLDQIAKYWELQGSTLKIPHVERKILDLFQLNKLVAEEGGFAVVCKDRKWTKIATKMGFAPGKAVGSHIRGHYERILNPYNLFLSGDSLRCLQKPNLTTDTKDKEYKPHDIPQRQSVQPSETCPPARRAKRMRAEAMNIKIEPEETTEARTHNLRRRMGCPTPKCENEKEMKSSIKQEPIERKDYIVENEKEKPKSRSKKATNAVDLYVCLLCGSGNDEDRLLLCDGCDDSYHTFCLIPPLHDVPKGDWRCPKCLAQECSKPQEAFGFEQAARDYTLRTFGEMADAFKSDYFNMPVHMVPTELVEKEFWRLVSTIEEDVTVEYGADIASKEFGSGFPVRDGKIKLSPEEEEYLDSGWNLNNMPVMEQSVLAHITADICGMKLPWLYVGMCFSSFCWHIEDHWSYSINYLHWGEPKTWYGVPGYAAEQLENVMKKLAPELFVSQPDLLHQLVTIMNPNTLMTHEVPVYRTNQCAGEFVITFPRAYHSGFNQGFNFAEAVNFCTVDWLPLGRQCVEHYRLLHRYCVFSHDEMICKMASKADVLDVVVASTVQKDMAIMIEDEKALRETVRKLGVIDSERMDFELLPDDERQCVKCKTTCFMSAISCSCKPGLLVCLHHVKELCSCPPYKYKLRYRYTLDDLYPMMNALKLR
In short: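 TR-FRET read-out of demethylated product (Eu-anti-H3K4me1-2, streptavidin-APC) after EDTA quench; ratio 665/615 fitted to IC50. Reaction: 30 min at RT, 0.8 nM baculovirus Jarid1B residues 2-751, 2 μM α-ketoglutarate, 300 nM H3K4me3-biotin peptide, pH 7.3 buffer with Fe(II) and ascorbate.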

JMJD2C = biological target: T2, JMJD2C (Homo sapiens, UniProt Q9H3R0); experiment: JMJD2C in vitro enzyme inhibition assay (TR-FRET); format: biochemical
T2 construct: purchased BPS Bioscience 50105
T2 sequence (Q9H3R0 2-372): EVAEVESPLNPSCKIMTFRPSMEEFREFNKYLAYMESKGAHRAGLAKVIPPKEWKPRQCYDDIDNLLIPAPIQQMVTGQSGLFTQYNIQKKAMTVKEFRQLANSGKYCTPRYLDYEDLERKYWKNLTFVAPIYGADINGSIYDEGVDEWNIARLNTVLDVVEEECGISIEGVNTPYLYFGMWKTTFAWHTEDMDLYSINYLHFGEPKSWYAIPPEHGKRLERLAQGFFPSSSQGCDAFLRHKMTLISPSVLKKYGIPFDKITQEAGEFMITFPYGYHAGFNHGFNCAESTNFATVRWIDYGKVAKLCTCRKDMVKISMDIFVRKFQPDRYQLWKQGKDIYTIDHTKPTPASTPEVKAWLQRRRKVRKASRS
In short: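 IC50 came from 665/615 TR-FRET ratios (Eu-anti-H3K9me2 antibody, streptavidin-APC, EDTA quench) over 11-point inhibitor series. Reactions ran 30 min at room temperature: 0.3 nM JMJD2C (AA 2-372, baculovirus), 300 nM biotinylated H3K9me3 peptide, 2 μM alpha-ketoglutarate, 2 μM Fe(II), ascorbate, pH 7.3.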

Structure (SMILES)	IC50 (Jarid1B)	IC50 (JMJD2C)
O=C(CO)N1CC[C@H](n2cc(Oc3nc(O)c4ccncc4n3)cn2)C1 [Example 155, 2-hydroxy-1-[(3S)-3-[4-({4-hydroxypyrido[3,4-d]pyrimidin-2-yl}oxy)-1H-pyrazol-1-yl]pyrrolidin-1-yl]ethan-1-one]	≤ 100 nM	≤ 100 nM
O=C(C1CC1)N1CCC[C@@H](n2cc(Oc3nc(O)c4ccncc4n3)cn2)C1 [Example 156, 2-({1-[(3R)-1-cyclopropanecarbonylpiperidin-3-yl]-1H-pyrazol-4-yl}oxy)pyrido[3,4-d]pyrimidin-4-ol]	≤ 100 nM	≤ 100 nM
O=C(c1ccccc1)N1CCC[C@@H](n2cc(Oc3nc(O)c4ccncc4n3)cn2)C1 [Example 157, 2-({1-[(3R)-1-benzoylpiperidin-3-yl]-1H-pyrazol-4-yl}oxy)pyrido[3,4-d]pyrimidin-4-ol]	≤ 100 nM	≤ 100 nM
Oc1nc(Oc2cnn([C@@H]3CCCN(Cc4ccccc4)C3)c2)nc2cnccc12 [Example 158, 2-({1-[(3R)-1-benzylpiperidin-3-yl]-1H-pyrazol-4-yl}oxy)pyrido[3,4-d]pyrimidin-4-ol]	≤ 100 nM	≤ 100 nM
Oc1nc(Oc2cnn([C@@H]3CCCN(c4ccc(F)cc4)C3)c2)nc2cnccc12 [Example 159, 2-({1-[(3R)-1-(4-fluorophenyl)piperidin-3-yl]-1H-pyrazol-4-yl}oxy)pyrido[3,4-d]pyrimidin-4-ol]	≤ 100 nM	≤ 100 nM
Oc1nc(Oc2cnn([C@H]3CCCNC3)c2)nc2cnccc12 [Example 160, 2-({1-[(3S)-piperidin-3-yl]-1H-pyrazol-4-yl}oxy)pyrido[3,4-d]pyrimidin-4-ol]	≤ 100 nM	≤ 100 nM
O=C(C1CC1)N1CCC[C@H](n2cc(Oc3nc(O)c4ccncc4n3)cn2)C1 [Example 165, 2-({1-[(3S)-1-cyclopropanecarbonylpiperidin-3-yl]-1H-pyrazol-4-yl}oxy)pyrido[3,4-d]pyrimidin-4-ol]	≤ 100 nM	≤ 100 nM

The remaining lines, values ahead:

IC50 (Jarid1B)	IC50 (JMJD2C)	Structure (SMILES)
≤ 100 nM	≤ 100 nM	CC(=O)N1CCC[C@@H](n2cc(Oc3nc(O)c4ccncc4n3)cn2)C1 [Example 153, 1-[(3R)-3-[4-({4-hydroxypyrido[3,4-d]pyrimidin-2-yl}oxy)-1H-pyrazol-1-yl]piperidin-1-yl]ethan-1-one]
≤ 100 nM	≤ 100 nM	N#CCC(=O)N1CCC[C@@H](n2cc(Oc3nc(O)c4ccncc4n3)cn2)C1 [Example 154, 3-[(3R)-3-[4-({4-hydroxypyrido[3,4-d]pyrimidin-2-yl}oxy)-1H-pyrazol-1-yl]piperidin-1-yl]-3-oxopropanenitrile]
≤ 100 nM	≤ 100 nM	CCS(=O)(=O)N1CCC[C@H](n2cc(Oc3nc(O)c4ccncc4n3)cn2)C1 [Example 161, 2-({1-[(3S)-1-(ethanesulfonyl)piperidin-3-yl]-1H-pyrazol-4-yl}oxy)pyrido[3,4-d]pyrimidin-4-ol]
≤ 100 nM	≤ 100 nM	O=S(=O)(C1CC1)N1CCC[C@H](n2cc(Oc3nc(O)c4ccncc4n3)cn2)C1 [Example 162, 2-({1-[(3S)-1-(cyclopropanesulfonyl)piperidin-3-yl]-1H-pyrazol-4-yl}oxy)pyrido[3,4-d]pyrimidin-4-ol]
≤ 100 nM	≤ 100 nM	O=S(=O)(c1ccccc1)N1CCC[C@H](n2cc(Oc3nc(O)c4ccncc4n3)cn2)C1 [Example 163, 2-({1-[(3S)-1-(benzenesulfonyl)piperidin-3-yl]-1H-pyrazol-4-yl}oxy)pyrido[3,4-d]pyrimidin-4-ol]
≤ 100 nM	≤ 100 nM	CC(=O)N1CCC[C@H](n2cc(Oc3nc(O)c4ccncc4n3)cn2)C1 [Example 164, 1-[(3S)-3-[4-({4-hydroxypyrido[3,4-d]pyrimidin-2-yl}oxy)-1H-pyrazol-1-yl]piperidin-1-yl]ethan-1-one]
≤ 100 nM	≤ 100 nM	N#CCC(=O)N1CCC[C@H](n2cc(Oc3nc(O)c4ccncc4n3)cn2)C1 [Example 166, 3-[(3S)-3-[4-({4-hydroxypyrido[3,4-d]pyrimidin-2-yl}oxy)-1H-pyrazol-1-yl]piperidin-1-yl]-3-oxopropanenitrile]

Source: US10526327B2, “Histone demethylase inhibitors” (CELGENE QUANTICEL RESEARCH, INC., priority 2013, dated 2020)
